Reference: patent US11566044B2, “Disulfide bond containing compounds and uses thereof” (THE UNIVERSITY OF QUEENSLAND, priority 2017, dated 2023)

Test: DTNB assay: stability of the S—S bond to 20% v/v piperidine in DMF (Fmoc-SPPS conditions)
Type: physicochemical
Details: 20% v/v piperidine in DMF for 6 h, absorbance at 308 and 412 nm
From the text: Prior to exploring further applications of the novel disulfide-bridged amino acid, the stability of its —S—S— bond to reagents/conditions employed during Fmoc-SPPS had to be established. For each deprotection step performed during peptide synthesis, a resin bound random amino acid is exposed to basic reagents with 20% v/v piperidine in DMF. —S—S— bond stability to these basic conditions was therefore trialled using a di-Boc protected disulfide bridged amino acid of the invention (compound 11), since the Boc protecting groups themselves would be stable to the basic conditions. […] Premature reduction of the disulfide-containing amino acid by piperidine would lead to the formation of free thiols that react with DTNB releasing NTB^2−, which can be readily identified spectrophotometrically at 412 nm.
DTNB (1 mg) was dissolved in 1 mL of methanol and a 1 mg/mL stock solution was prepared. A DTNB calibration curve was prepared by measurement of the absorbance (λmax=308 nm) over a range of concentrations (5, 10, 15, 20, and 25 μg/mL) in the presence of 20% v/v piperidine in DMF (100 μL). […]
Stability of the disulfide-bridged amino acid (compound 11) to basic conditions was assessed next, where it was first incubated with 20% v/v piperidine in DMF for up to 6 h and from that different concentrations of samples were prepared. […]

## COC(=O)[C@H](CSSC(C)(C)CNC(=O)OC(C)(C)C)NC(=O)OC(C)(C)C [compound 11, Boc-Cys(S—SC(CH3)2CH2NH(Boc))—OCH3]
  Base stability of the S—S bond (free thiols generated/detected): no free thiols were generated/detected
